Source: ChEMBL document CHEMBL3991601, “The target landscape of clinical kinase drugs” (Science, 2017)
Activity calls are given as the source filed them.

Tests used:
[1] = target: Bone morphogenetic protein receptor type-1A (Homo sapiens, UniProt P36894)
[2] = target: T1, Structural maintenance of chromosomes protein 1A (Homo sapiens, UniProt Q14683)
T1 sequence (Q14683 whole entry): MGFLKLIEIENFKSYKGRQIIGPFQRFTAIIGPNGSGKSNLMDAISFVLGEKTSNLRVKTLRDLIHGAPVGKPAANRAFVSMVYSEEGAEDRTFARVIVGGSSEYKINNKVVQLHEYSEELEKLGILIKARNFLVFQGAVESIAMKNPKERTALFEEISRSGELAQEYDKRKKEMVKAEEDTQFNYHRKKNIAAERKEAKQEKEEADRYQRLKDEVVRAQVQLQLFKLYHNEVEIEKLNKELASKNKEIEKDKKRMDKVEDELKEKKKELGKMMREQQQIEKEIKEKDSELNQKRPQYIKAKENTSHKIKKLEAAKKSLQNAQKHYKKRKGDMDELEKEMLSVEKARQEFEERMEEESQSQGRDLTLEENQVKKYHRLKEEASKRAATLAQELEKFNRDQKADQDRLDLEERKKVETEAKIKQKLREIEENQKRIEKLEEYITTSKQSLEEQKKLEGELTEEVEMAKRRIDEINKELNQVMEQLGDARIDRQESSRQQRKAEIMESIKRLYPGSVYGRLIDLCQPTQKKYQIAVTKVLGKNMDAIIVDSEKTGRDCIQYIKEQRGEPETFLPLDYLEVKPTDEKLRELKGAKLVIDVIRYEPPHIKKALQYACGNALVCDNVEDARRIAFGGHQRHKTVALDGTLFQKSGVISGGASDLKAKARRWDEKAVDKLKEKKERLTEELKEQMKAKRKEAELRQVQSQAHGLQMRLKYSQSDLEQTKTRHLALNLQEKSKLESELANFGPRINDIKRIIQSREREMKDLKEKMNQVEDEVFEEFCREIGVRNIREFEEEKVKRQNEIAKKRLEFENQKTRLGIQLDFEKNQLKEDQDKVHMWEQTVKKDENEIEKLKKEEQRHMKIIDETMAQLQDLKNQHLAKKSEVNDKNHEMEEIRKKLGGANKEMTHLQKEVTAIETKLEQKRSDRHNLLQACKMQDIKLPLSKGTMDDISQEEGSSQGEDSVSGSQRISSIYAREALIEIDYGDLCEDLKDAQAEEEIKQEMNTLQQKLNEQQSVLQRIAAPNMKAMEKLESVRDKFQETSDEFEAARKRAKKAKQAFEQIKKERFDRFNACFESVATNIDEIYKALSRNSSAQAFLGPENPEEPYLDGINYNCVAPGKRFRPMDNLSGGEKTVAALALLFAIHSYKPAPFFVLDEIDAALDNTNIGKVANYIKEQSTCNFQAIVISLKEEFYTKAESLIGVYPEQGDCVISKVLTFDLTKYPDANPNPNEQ

[3] = target: T2, ADP/ATP translocase 2 (Homo sapiens, UniProt P05141)
T2 sequence (P05141 whole entry): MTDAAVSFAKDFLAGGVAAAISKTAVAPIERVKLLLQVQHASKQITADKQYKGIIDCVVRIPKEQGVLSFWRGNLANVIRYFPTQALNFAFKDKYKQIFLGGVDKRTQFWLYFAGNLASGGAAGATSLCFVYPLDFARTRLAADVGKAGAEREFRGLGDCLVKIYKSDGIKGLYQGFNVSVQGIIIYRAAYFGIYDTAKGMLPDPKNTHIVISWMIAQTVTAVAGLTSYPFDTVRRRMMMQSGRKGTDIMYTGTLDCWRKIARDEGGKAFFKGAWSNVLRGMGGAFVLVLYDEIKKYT

[4] = target: cAMP-dependent protein kinase catalytic subunit gamma (Homo sapiens, UniProt P22612)
cAMP-dependent protein kinase catalytic subunit gamma, sequence (P22612 whole entry): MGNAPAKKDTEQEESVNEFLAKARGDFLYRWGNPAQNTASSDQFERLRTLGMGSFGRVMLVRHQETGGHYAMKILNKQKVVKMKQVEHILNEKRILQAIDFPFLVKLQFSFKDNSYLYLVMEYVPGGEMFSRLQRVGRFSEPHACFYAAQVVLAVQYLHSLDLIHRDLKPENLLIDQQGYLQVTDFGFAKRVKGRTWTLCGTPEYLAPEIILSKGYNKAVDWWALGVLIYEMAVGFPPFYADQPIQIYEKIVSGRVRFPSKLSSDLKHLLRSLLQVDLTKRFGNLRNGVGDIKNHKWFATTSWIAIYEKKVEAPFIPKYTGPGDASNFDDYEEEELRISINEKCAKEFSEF

[5] = target: Actin-related protein 2 (Homo sapiens, UniProt P61160)
[6] = target: T3, Ribosyldihydronicotinamide dehydrogenase [quinone] (Homo sapiens, UniProt P16083)
T3 sequence (P16083 whole entry): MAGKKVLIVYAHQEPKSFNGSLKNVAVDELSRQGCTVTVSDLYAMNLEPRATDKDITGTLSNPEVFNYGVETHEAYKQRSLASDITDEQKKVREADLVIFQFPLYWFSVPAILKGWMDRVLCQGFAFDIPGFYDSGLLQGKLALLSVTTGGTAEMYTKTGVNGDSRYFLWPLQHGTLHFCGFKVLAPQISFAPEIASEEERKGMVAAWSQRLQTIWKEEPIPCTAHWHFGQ

[7] = target: Serine/threonine-protein kinase 26 (Homo sapiens, UniProt Q9P289)
Serine/threonine-protein kinase 26, sequence (Q9P289 whole entry): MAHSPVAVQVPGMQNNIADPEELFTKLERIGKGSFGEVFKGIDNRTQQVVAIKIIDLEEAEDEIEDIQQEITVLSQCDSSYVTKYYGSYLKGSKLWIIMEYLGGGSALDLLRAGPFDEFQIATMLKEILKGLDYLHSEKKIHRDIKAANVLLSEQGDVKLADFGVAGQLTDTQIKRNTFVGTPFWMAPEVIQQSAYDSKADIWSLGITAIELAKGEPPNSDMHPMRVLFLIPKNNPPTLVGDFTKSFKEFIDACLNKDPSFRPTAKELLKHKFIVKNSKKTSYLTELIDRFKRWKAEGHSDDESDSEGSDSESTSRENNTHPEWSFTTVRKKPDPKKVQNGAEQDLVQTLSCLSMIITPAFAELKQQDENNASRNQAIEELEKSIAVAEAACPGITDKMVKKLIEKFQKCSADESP

[8] = target: Serine/threonine-protein kinase/endoribonuclease IRE1 (Homo sapiens, UniProt O75460)
Serine/threonine-protein kinase/endoribonuclease IRE1, sequence (O75460 whole entry): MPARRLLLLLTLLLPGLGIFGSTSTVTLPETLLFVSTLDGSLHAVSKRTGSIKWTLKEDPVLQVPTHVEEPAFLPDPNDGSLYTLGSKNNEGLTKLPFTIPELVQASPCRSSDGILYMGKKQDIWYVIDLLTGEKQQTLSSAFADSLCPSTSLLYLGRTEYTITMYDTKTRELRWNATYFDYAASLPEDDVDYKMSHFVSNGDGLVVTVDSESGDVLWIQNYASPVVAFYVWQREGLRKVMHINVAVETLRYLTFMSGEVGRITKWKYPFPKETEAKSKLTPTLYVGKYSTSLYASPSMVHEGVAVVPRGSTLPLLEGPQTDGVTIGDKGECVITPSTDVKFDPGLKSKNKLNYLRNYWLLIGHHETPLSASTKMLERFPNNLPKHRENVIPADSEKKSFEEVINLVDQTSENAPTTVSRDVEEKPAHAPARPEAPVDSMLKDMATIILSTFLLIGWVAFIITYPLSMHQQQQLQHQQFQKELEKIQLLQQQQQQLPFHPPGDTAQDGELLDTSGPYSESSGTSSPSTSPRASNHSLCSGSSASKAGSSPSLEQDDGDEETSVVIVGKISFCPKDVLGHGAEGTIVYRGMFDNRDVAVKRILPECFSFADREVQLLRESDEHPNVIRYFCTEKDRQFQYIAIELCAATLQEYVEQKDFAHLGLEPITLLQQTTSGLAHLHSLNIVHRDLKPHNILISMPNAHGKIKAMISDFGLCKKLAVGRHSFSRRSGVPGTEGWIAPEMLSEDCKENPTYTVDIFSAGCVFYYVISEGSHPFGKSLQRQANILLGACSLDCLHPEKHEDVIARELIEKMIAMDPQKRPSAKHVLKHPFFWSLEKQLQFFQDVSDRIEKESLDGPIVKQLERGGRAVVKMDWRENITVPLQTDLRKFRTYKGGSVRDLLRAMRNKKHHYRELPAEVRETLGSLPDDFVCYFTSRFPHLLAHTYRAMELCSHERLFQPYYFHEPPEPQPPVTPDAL

[9] = target: T4, Probable ATP-dependent RNA helicase DDX6 (Homo sapiens, UniProt P26196)
T4 sequence (P26196 whole entry): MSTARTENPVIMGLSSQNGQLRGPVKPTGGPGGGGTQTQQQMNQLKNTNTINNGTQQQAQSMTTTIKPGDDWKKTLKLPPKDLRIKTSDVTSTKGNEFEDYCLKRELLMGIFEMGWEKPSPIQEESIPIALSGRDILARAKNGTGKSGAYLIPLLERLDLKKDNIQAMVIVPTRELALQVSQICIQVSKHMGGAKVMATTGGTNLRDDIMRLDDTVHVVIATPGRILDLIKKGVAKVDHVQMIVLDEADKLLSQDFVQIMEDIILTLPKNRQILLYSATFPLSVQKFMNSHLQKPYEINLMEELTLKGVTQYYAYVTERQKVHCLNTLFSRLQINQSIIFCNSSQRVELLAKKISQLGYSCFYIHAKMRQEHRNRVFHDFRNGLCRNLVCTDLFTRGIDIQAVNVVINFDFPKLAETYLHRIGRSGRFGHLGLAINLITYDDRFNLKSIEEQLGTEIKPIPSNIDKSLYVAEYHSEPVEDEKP

[10] = target: Casein kinase II subunit alpha' (Homo sapiens, UniProt P19784)
Casein kinase II subunit alpha', sequence (P19784 whole entry): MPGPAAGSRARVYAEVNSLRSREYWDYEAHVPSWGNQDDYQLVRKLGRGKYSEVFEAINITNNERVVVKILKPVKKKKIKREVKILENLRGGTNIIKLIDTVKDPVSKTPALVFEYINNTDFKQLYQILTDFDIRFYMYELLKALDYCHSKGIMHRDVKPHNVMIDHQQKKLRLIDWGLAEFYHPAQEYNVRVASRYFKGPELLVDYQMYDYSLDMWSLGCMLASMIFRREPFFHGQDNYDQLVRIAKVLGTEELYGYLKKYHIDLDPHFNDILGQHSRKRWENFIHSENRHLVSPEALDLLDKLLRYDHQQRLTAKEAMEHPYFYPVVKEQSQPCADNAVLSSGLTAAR
Note: in the data inactive means no Kd found up to 30 µM.

Bone morphogenetic protein receptor type-1A, sequence (P36894 whole entry): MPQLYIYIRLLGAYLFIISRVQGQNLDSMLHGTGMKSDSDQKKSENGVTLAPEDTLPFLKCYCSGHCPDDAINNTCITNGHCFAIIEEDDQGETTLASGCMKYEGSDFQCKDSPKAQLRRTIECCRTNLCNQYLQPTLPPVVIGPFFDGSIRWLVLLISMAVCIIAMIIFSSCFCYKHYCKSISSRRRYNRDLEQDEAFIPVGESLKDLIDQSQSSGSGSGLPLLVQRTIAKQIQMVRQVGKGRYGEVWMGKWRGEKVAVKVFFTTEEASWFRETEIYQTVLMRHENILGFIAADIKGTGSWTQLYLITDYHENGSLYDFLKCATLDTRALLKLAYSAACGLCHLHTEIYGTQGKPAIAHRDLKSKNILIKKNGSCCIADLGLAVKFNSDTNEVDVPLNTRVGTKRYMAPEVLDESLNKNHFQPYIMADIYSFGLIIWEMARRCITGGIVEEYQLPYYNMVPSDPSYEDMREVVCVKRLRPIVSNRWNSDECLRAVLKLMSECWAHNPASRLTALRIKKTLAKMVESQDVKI

Cc1cc2c(F)c(Oc3ncnn4cc(OC[C@@H](C)OC(=O)[C@H](C)N)c(C)c34)ccc2[nH]1 [BRIVANIB ALANINATE]
Kd [1]: > 30 µM (inactive) | Kd [2]: > 30 µM (inactive) | Kd [3]: > 30 µM (inactive) | Kd [4]: > 30 µM (inactive) | Kd [5]: > 30 µM (inactive) | Kd [6]: > 30 µM (inactive) | Kd [7]: > 30 µM (inactive) | Kd [8]: > 30 µM (inactive) | Kd [9]: > 30 µM (inactive) | Kd [10]: > 30 µM (inactive)

CCc1cnn2c(NCc3ccc[n+]([O-])c3)cc(N3CCCC[C@H]3CCO)nc12 [DINACICLIB]
Kd [1]: > 30 µM (inactive) | Kd [2]: > 30 µM (inactive) | Kd [3]: > 30 µM (inactive) | Kd [4]: > 30 µM (inactive) | Kd [5]: > 30 µM (inactive) | Kd [6]: > 30 µM (inactive) | Kd [7]: 0.098 µM (active) | Kd [8]: > 30 µM (inactive) | Kd [9]: > 30 µM (inactive) | Kd [10]: > 30 µM (inactive)

COC(=O)N[C@@H](C)CNc1nccc(-c2cn(C(C)C)nc2-c2cc(Cl)cc(NS(C)(=O)=O)c2F)n1 [ENCORAFENIB]
Kd [1]: > 30 µM (inactive) | Kd [2]: > 30 µM (inactive) | Kd [3]: > 30 µM (inactive) | Kd [4]: > 30 µM (inactive) | Kd [5]: > 30 µM (inactive) | Kd [6]: > 30 µM (inactive) | Kd [7]: > 30 µM (inactive) | Kd [8]: > 30 µM (inactive) | Kd [9]: > 30 µM (inactive) | Kd [10]: > 30 µM (inactive)

CO[C@H]1C[C@@H]2CC[C@@H](C)[C@@](O)(O2)C(=O)C(=O)N2CCCC[C@H]2C(=O)O[C@H]([C@H](C)C[C@@H]2CC[C@@H](OCCO)[C@H](OC)C2)CC(=O)[C@H](C)/C=C(\C)[C@@H](O)[C@@H](OC)C(=O)[C@H](C)C[C@H](C)/C=C/C=C/C=C/1C [EVEROLIMUS]
Kd [1]: > 30 µM (inactive) | Kd [2]: > 30 µM (inactive) | Kd [3]: > 30 µM (inactive) | Kd [4]: > 30 µM (inactive) | Kd [5]: > 30 µM (inactive) | Kd [6]: > 30 µM (inactive) | Kd [7]: > 30 µM (inactive) | Kd [8]: > 30 µM (inactive) | Kd [9]: > 30 µM (inactive) | Kd [10]: > 30 µM (inactive)

O=C1NC(=O)/C(=C/c2ccc3nccc(-c4ccncc4)c3c2)S1 [GSK-1059615]
Kd [1]: > 30 µM (inactive) | Kd [2]: > 30 µM (inactive) | Kd [3]: > 30 µM (inactive) | Kd [4]: > 30 µM (inactive) | Kd [5]: > 30 µM (inactive) | Kd [6]: > 30 µM (inactive) | Kd [7]: > 30 µM (inactive) | Kd [8]: > 30 µM (inactive) | Kd [9]: > 30 µM (inactive) | Kd [10]: 0.017 µM (active)

CC[C@H](Nc1ncnc2[nH]cnc12)c1nc2cccc(F)c2c(=O)n1-c1ccccc1 [IDELALISIB]
Kd [1]: > 30 µM (inactive) | Kd [2]: > 30 µM (inactive) | Kd [3]: > 30 µM (inactive) | Kd [4]: > 30 µM (inactive) | Kd [5]: > 30 µM (inactive) | Kd [6]: > 30 µM (inactive) | Kd [7]: > 30 µM (inactive) | Kd [8]: > 30 µM (inactive) | Kd [9]: > 30 µM (inactive) | Kd [10]: > 30 µM (inactive)

Cn1cc(-c2ccc3nnc(C(F)(F)c4ccc5ncccc5c4)n3n2)cn1 [JNJ-38877605]
Kd [1]: > 30 µM (inactive) | Kd [2]: > 30 µM (inactive) | Kd [3]: > 30 µM (inactive) | Kd [4]: > 30 µM (inactive) | Kd [5]: > 30 µM (inactive) | Kd [6]: 0.323 µM (active) | Kd [7]: > 30 µM (inactive) | Kd [8]: > 30 µM (inactive) | Kd [9]: > 30 µM (inactive) | Kd [10]: > 30 µM (inactive)

COC(=O)[C@@]1(O)C[C@H]2O[C@]1(C)n1c3ccccc3c3c4c(c5c6ccccc6n2c5c31)C(=O)NC4 [K-252A]
Kd [1]: > 30 µM (inactive) | Kd [2]: > 30 µM (inactive) | Kd [3]: > 30 µM (inactive) | Kd [4]: > 30 µM (inactive) | Kd [5]: > 30 µM (inactive) | Kd [6]: 4.03 µM (active) | Kd [7]: > 30 µM (inactive) | Kd [8]: 0.019 µM (active) | Kd [9]: > 30 µM (inactive) | Kd [10]: > 30 µM (inactive)

Cc1c(F)cc(C(=O)NC2CC2)cc1-c1ccc(C(=O)NCC(C)(C)C)cn1 [LOSMAPIMOD]
Kd [1]: > 30 µM (inactive) | Kd [2]: > 30 µM (inactive) | Kd [3]: > 30 µM (inactive) | Kd [4]: 49.3 µM (active) | Kd [5]: > 30 µM (inactive) | Kd [6]: > 30 µM (inactive) | Kd [7]: > 30 µM (inactive) | Kd [8]: > 30 µM (inactive) | Kd [9]: > 30 µM (inactive) | Kd [10]: > 30 µM (inactive)

Cc1ccc(-n2nc(C(C)(C)C)cc2NC(=O)NCc2cc(F)ccc2Oc2ccc3c(cnn3CCO)c2)cc1 [PEXMETINIB]
Kd [1]: > 30 µM (inactive) | Kd [2]: > 30 µM (inactive) | Kd [3]: > 30 µM (inactive) | Kd [4]: > 30 µM (inactive) | Kd [5]: > 30 µM (inactive) | Kd [6]: > 30 µM (inactive) | Kd [7]: > 30 µM (inactive) | Kd [8]: > 30 µM (inactive) | Kd [9]: > 30 µM (inactive) | Kd [10]: > 30 µM (inactive)

CNC(=O)c1cc(Oc2ccc(NC(=O)Nc3ccc(Cl)c(C(F)(F)F)c3)c(F)c2)ccn1 [REGORAFENIB]
Kd [1]: > 30 µM (inactive) | Kd [2]: > 30 µM (inactive) | Kd [3]: > 30 µM (inactive) | Kd [4]: > 30 µM (inactive) | Kd [5]: > 30 µM (inactive) | Kd [6]: > 30 µM (inactive) | Kd [7]: > 30 µM (inactive) | Kd [8]: > 30 µM (inactive) | Kd [9]: > 30 µM (inactive) | Kd [10]: > 30 µM (inactive)

CN(C)C(=O)c1cc2cnc(Nc3ccc(N4CCNCC4)cn3)nc2n1C1CCCC1 [RIBOCICLIB]
Kd [1]: > 30 µM (inactive) | Kd [2]: > 30 µM (inactive) | Kd [3]: > 30 µM (inactive) | Kd [4]: > 30 µM (inactive) | Kd [5]: > 30 µM (inactive) | Kd [6]: > 30 µM (inactive) | Kd [7]: > 30 µM (inactive) | Kd [8]: > 30 µM (inactive) | Kd [9]: > 30 µM (inactive) | Kd [10]: > 30 µM (inactive)

COc1cc(OC)c(/C=C/S(=O)(=O)Cc2ccc(OC)c(NCC(=O)O)c2)c(OC)c1 [RIGOSERTIB]
Kd [1]: > 30 µM (inactive) | Kd [2]: > 30 µM (inactive) | Kd [3]: > 30 µM (inactive) | Kd [4]: > 30 µM (inactive) | Kd [5]: > 30 µM (inactive) | Kd [6]: 15.2 µM (active) | Kd [7]: > 30 µM (inactive) | Kd [8]: > 30 µM (inactive) | Kd [9]: > 30 µM (inactive) | Kd [10]: > 30 µM (inactive)

CNC(=O)CN1CCC(Oc2cc3c(Nc4cccc(Cl)c4F)ncnc3cc2OC)CC1 [SAPITINIB]
Kd [1]: > 30 µM (inactive) | Kd [2]: > 30 µM (inactive) | Kd [3]: > 30 µM (inactive) | Kd [4]: > 30 µM (inactive) | Kd [5]: > 30 µM (inactive) | Kd [6]: > 30 µM (inactive) | Kd [7]: > 30 µM (inactive) | Kd [8]: > 30 µM (inactive) | Kd [9]: > 30 µM (inactive) | Kd [10]: > 30 µM (inactive)
